Source: patent publication US20200172631A1, “ERBB2/HER2 MUTATIONS IN THE TRANSMEMBRANE OR JUXTAMEMBRANE DOMAIN” (GENENTECH, INC., priority 2017, published 2020)

Tested on: TM/JM Her2 mutants expressed in BaF3 cells
Test: BaF3 cell viability assay, all Her2 TM/JM mutants tested
Format: cell-based, human
Details: BaF3 system, all Her2 TM/JM mutants tested (FIG. 7)
Procedure: BaF3 cells were maintained in RPMI 1640 supplemented with 10% (v/v) fetal bovine serum (Thermo Fisher Scientific, IL), 2 mM L-glutamine, 100 U/ml penicillin, 100 mg/ml streptomycin (complete RPMI) and 2 ng/mL mouse IL-3.
BaF3 cells were cultured in complete RPMI media supplemented with recombinant murine IL-3 (mIL-3) and puromycin (1 μg/ml).
BaF3 cells survival assay was performed as described previously (Jaiswal et al., 2011). Briefly, stable cells expressing Her2 WT or mutants were washed twice times with 1× PBS and plated in 96-well plates (10,000 cells/well) in replicates of 12 in complete RPMI medium without IL-3. Cell viability was measured using the Cell Titer Glo Luminescence Cell Viability Kit (Promega, CA), and plates were read on a Synergy 2 (Biotek Instruments) luminescence plate reader. Relative survival reported was calculated as a ratio of relative luciferase activity (RLU) at day 4 over RLU measured at the day 0. The mutant Her2 constructs were tested in BaF3 either alone or in the presence of WT Flag tagged Her2 as indicated.
Viable cell number was assessed 4 days after treatment using Cell Titer-Glo Luminescent cell viability assay kit (Promega, WI). Non-linear regression plot of antibodies and their fractions or inhibitors were generated and calculation of IC50 was performed using GraphPad Prism 5.00 (GraphPad Software, CA). […]

Structure (SMILES) | response of Her2 TM/JM mutants to ERBB2 kinase inhibitory small molecule drugs, effect on cell survival
CS(=O)(=O)CCNCc1ccc(-c2ccc3ncnc(Nc4ccc(OCc5cccc(F)c5)c(Cl)c4)c3c2)o1 [lapatinib] | respond
CCOc1cc2ncc(C#N)c(Nc3ccc(OCc4ccccn4)c(Cl)c3)c2cc1NC(=O)/C=C/CN(C)C [neratinib] | respond
